Measured values published in patent US5480880A, “Penem derivatives” (Farmitalia Carlo Erba S.r.l., priority 1991, dated 1996).

Tests used:
[1] = system: Staphylococcus aureus Smith ATCC 13709; experiment: In vivo activity on mouse systemic infection, S. aureus (ED50); conditions: ATCC13709, sc, 120 h, mouse systemic infection (female CD1), subcutaneous, treatment 120 min after infection, survival on day 5, read-out: ED50 (cumulative subcutaneous dose)
Description: (§1) Invivo activity of Compound of formula (I), R =
(§2) CH2 SO2 NHCN (Example 1), in comparison with FCE 22101*,
(§3) on mouse^a systemic infections.
(§4) ^a) Female mice CD1 (Charles River, Italy), weighing 22 ± 2 g were
(§5) used, experimentally infected by an introperitoneal route. Eight animals
(§6) were used at each of the concentrations of compound tested, which were
(§7) administered subcutaneously (0.1 ml/10 g weight). The mortality was
(§8) recorded daily and the number of animals surviving on day 5 was used to
(§9) calculate the cumulative effective dose (ED50).
(§10) ^b) Cumulative subcutaneous dose.
(§11) ^c) Infecting organisms were: S. aureus, Staphylococcus aureus Smith
(§12) ATCC 13709; E. Coli, Escherichia coli G (clinical isolate); S. faecalis,
(§13) ^d) Minutes after infection.

[2] = system: Escherichia coli G (clinical isolate); experiment: In vivo activity on mouse systemic infection, E. coli (ED50); conditions: sc, 120 h, mouse systemic infection (female CD1), subcutaneous, treatment 30-90-360 min after infection, survival on day 5, read-out: ED50 (cumulative subcutaneous dose)
Description: as §1, §2, §3, §4, §5, §6, §7, §8, §9, §10, §11, §12, §13

[3] = system: Streptococcus faecalis 3817 (clinical isolate); experiment: In vivo activity on mouse systemic infection, S. faecalis (ED50); conditions: Enterococcus faecalis, sc, 120 h, mouse systemic infection (female CD1), subcutaneous, treatment 60-180 min after infection, survival on day 5, read-out: ED50 (cumulative subcutaneous dose)
Description: as §1, §2, §3, §4, §5, §6, §7, §8, §9, §10, §11, §12
Streptococcus faecalis 3817 (clinical isolate).
as §13

Acute toxicity in mice = conditions: in vivo; mouse, I.D. (so in the source)

In the case of CC(O)C1C(=O)N2C(C(=O)O)=C(COC(N)=O)SC12 (stereo not shown) [FCE 22101, reference compound], the ED50 [1] is reported as 0.7 mg/kg, the ED50 [2] is reported as 10 mg/kg and the ED50 [3] is reported as 80 mg/kg.

CC(O)C1C(=O)N2C(C(=O)O)=C(c3ccc(C[n+]4ccc(CS(=O)(=O)[N-]C#N)cc4)cc3)SC12 [Example 1, (5R,6S)-6-/1 (R)-Hydroxyethyl/-2-/4-/4-(N-cyanosulfamoylato) methyl-1-pyridinio/methylphenyl/penem-3-carboxylic acid] gave an ED50 [1] of 0.16 mg/kg, an ED50 [2] of 0.65 mg/kg and an LD50 (Acute toxicity in mice) greater than 3000 mg/kg. For the same molecule, the ED50 [3] was 8.5 mg/kg.
